Source: publication PMC8286840, “Identifying SARS-CoV-2 antiviral compounds by screening for small molecule inhibitors of Nsp3 papain-like protease” (Biochemical Journal, 2021)
Counter-ions that a name gives are not always drawn. Like-named read-outs stand apart in the source and are kept apart here. Where a SMILES comes first, the peptide text is derived from it.

What was measured:
[1] = target: T1, SARS-CoV-2 PLpro (nsp3 1564–1878) (Severe acute respiratory syndrome coronavirus 2, UniProt P0DTD1); test: biochemical; set-up: FRET-quenched peptide (Pro3) cleavage by PLpro, 10 min pre-incubation, slope over 20 min, normalised to no-compound control; details: high concentration screen, read-out: % of control remaining
[2] = target: T1, SARS-CoV-2 PLpro (nsp3 1564–1878); test: biochemical; set-up: FRET-quenched peptide (Pro3) cleavage by PLpro, 10 min pre-incubation, slope over 20 min, normalised to no-compound control; details: low concentration screen, read-out: % of control remaining

Cc1onc(-c2ccccc2Cl)c1C(=O)N[C@@H]1C(=O)N2[C@@H]1SC(C)(C)[C@@H]2C(=O)O [Cloxacillin (sodium monohydrate)]
remaining activity at 3.75 µM ([1]; Well no.=7556): 103%
remaining activity at 1.25 µM ([2]; Well no.=7556): 101%

CC(C)=CC[C@@H](OC(=O)C=C(C)C)C1=CC(=O)c2c(O)ccc(O)c2C1=O
remaining activity at 3.75 µM ([1]; Well no.=3305): 85.3%
remaining activity at 1.25 µM ([2]; Well no.=3305): 89.6%

Cc1ccc(-n2sc(=O)n(Cc3ccc(F)cc3)c2=O)cc1 [CCG 50014]
remaining activity at 3.75 µM ([1]; Well no.=5215): 102%
remaining activity at 1.25 µM ([2]; Well no.=5215): 105%

O=C1OC(=O)[C@H]2[C@@H]1[C@@H]1CC[C@H]2O1 [Norcantharidin]
remaining activity at 3.75 µM ([1]; Well no.=909): 97.7%
remaining activity at 1.25 µM ([2]; Well no.=909): 100%

C=C1C(=O)[C@]23[C@H](O)[C@H]1CC[C@H]2[C@@]12CO[C@]3(O)[C@@H](O)[C@@H]1C(C)(C)CC[C@@H]2O [Oridonin]
remaining activity at 3.75 µM ([1]; Well no.=3255): 103%
remaining activity at 1.25 µM ([2]; Well no.=3255): 101%

NC(N)=NCCC[C@H](N)C(=O)NCC(=O)N[C@@H](CC(=O)O)C(=O)N[C@@H](CS)C(=O)O [Arg-Gly-Asp-Cys] (H-RGDC-OH)
remaining activity at 3.75 µM ([1]; Well no.=8126): 97.3%
remaining activity at 1.25 µM ([2]; Well no.=8126): 99.2%

O=C(O)CC(O)(CC(=O)O)C(=O)O [Citric acid]
remaining activity at 3.75 µM ([1]; Well no.=6195): 103%
remaining activity at 3.75 µM ([1]; Well no.=6298): 104%
remaining activity at 1.25 µM ([2]; Well no.=6195): 104%
remaining activity at 1.25 µM ([2]; Well no.=6298): 103%

Cc1c(OCC(F)(F)F)ccnc1C[S+]([O-])c1nc2ccccc2[nH]1 (stereo not shown) [Lansoprazole]
remaining activity at 3.75 µM ([1]; Well no.=1075): 98.7%
remaining activity at 1.25 µM ([2]; Well no.=1075): 98.5%

CC(CC(=O)O)C(=O)O (stereo not shown) [2-Methylsuccinic acid]
remaining activity at 3.75 µM ([1]; Well no.=6635): 98.3%
remaining activity at 1.25 µM ([2]; Well no.=6635): 100%

CC(CN(C)C)NC(=O)c1cccc2[nH]c(-c3ccncc3)nc12 (stereo not shown) [ChX710]
remaining activity at 3.75 µM ([1]; Well no.=8551): 101%
remaining activity at 1.25 µM ([2]; Well no.=8551): 108%

CCc1oc2ccccc2c1C(=O)c1cc(Br)c(O)c(Br)c1 [Benzbromarone]
remaining activity at 3.75 µM ([1]; Well no.=8442): 85.1%
remaining activity at 1.25 µM ([2]; Well no.=8442): 86.8%

C[C@H](N)C(=O)O [_-Alanine]
remaining activity at 3.75 µM ([1]; Well no.=7747): 107%
remaining activity at 1.25 µM ([2]; Well no.=7747): 103%

C[C@]12CC[C@@H](O)C[C@@H]1CC[C@@H]1[C@@H]2CC[C@]2(C)[C@@H](O)CC[C@@H]12 [5alpha-Androstane-3alpha,17beta-diol]
remaining activity at 3.75 µM ([1]; Well no.=244): 94.8%
remaining activity at 1.25 µM ([2]; Well no.=244): 98.9%

C#C[C@]1(O)CC[C@H]2[C@@H]3CCC4=Cc5nc6nc7ccccc7n6cc5C[C@]4(C)[C@H]3CC[C@@]21C [WIN 62,577]
remaining activity at 3.75 µM ([1]; Well no.=1196): 97.4%
remaining activity at 1.25 µM ([2]; Well no.=1196): 99.9%

CC(C)(N)C(=O)O [NSC 16590]
remaining activity at 3.75 µM ([1]; Well no.=7781): 108%
remaining activity at 1.25 µM ([2]; Well no.=7781): 103%

CC(C)n1nc(-c2ccc3oc(N)nc3c2)c2c(N)ncnc21 [INK 128 (MLN0128)]
remaining activity at 3.75 µM ([1]; Well no.=5133): 104%
remaining activity at 1.25 µM ([2]; Well no.=5133): 98.6%

C#C[C@]1(CO)O[C@@H](n2cnc3c(N)nc(F)nc32)C[C@@H]1O [Islatravir]
remaining activity at 3.75 µM ([1]; Well no.=7822): 105%
remaining activity at 1.25 µM ([2]; Well no.=7822): 105%

CCCc1c(OCCCCc2nnn[nH]2)ccc(C(C)=O)c1O [LY-171883]
remaining activity at 3.75 µM ([1]; Well no.=4522): 102%
remaining activity at 1.25 µM ([2]; Well no.=4522): 98%

OCCOCCN1CCN(C2=Nc3ccccc3Sc3ccccc32)CC1 [Quetiapine]
remaining activity at 3.75 µM ([1]; Well no.=6616): 98.6%
remaining activity at 1.25 µM ([2]; Well no.=6616): 98.1%

CC(C)N(CCC(C(N)=O)(c1ccccc1)c1ccccn1)C(C)C (stereo not shown) [Disopyramide phosphate salt]
remaining activity at 3.75 µM ([1]; Well no.=5508): 103%
remaining activity at 1.25 µM ([2]; Well no.=5508): 105%

O=C1CSC(c2ccccc2Cl)c2cc(Cl)ccc2N1 (stereo not shown) [CGP-37157]
remaining activity at 3.75 µM ([1]; Well no.=5845): 106%
remaining activity at 1.25 µM ([2]; Well no.=5845): 106%

N[C@@H](C(=O)N[C@@H]1C(=O)N2C(C(=O)O)=C(Cl)CS[C@H]12)c1ccccc1 [Cefaclor]
remaining activity at 3.75 µM ([1]; Well no.=88): 101%
remaining activity at 1.25 µM ([2]; Well no.=88): 99.7%

N=C(N)c1ccc(N)cc1 [4-Aminobenzamidine dihydrochloride]
remaining activity at 3.75 µM ([1]; Well no.=309): 92.5%
remaining activity at 1.25 µM ([2]; Well no.=309): 91.8%

c1ccc(NCc2ccc(CNc3ccccn3)cc2)nc1 [WZ811]
remaining activity at 3.75 µM ([1]; Well no.=7135): 96.2%
remaining activity at 3.75 µM ([1]; Well no.=8459): 88.4%
remaining activity at 1.25 µM ([2]; Well no.=7135): 102%
remaining activity at 1.25 µM ([2]; Well no.=8459): 98.2%

C1N2CN3CN1CN(C2)C3 [Methenamine (Mandelamine)]
remaining activity at 3.75 µM ([1]; Well no.=4975): 96.7%
remaining activity at 1.25 µM ([2]; Well no.=4975): 96.3%

CN1C(=O)N[C@H](Cc2c[nH]c3c(Cl)cccc23)C1=O [Necrostatin 2]
remaining activity at 3.75 µM ([1]; Well no.=6916): 98.6%
remaining activity at 1.25 µM ([2]; Well no.=6916): 99.4%

CCCCC[C@H](O)/C=C/C=C/C=C/[C@H](O)C/C=C\CCCC(=O)O [8(R),15(S)-DIHETE all trans]
remaining activity at 3.75 µM ([1]; Well no.=4377): 105%
remaining activity at 1.25 µM ([2]; Well no.=4377): 102%

O=C1NC(=O)C(Cc2ccc3cc(OCc4ccccc4F)ccc3c2)S1 (stereo not shown) [5-({6-[(2-fluorobenzyl)oxy]-2-naphthyl}methyl)-1,3-thiazolidine-2,4-dione]
remaining activity at 3.75 µM ([1]; Well no.=5872): 97.8%
remaining activity at 1.25 µM ([2]; Well no.=5872): 104%

CC(C)c1nn(-c2c(Cl)cccc2Cl)c2nc(Cc3ccc(OCCO)cc3)[nH]c(=O)c12 [Cdk/Crk Inhibitor]
remaining activity at 3.75 µM ([1]; Well no.=2420): 105%
remaining activity at 1.25 µM ([2]; Well no.=2420): 105%

CN(C)Cc1c[nH]c2ccccc12 [Gramine]
remaining activity at 3.75 µM ([1]; Well no.=3284): 99.5%
remaining activity at 1.25 µM ([2]; Well no.=3284): 97.9%

Cc1c(C(=O)NN2CCCCC2)nn(-c2ccc(Cl)cc2Cl)c1-c1ccc(Cl)cc1 [Rimonabant (Hydrochloride)]
remaining activity at 3.75 µM ([1]; Well no.=8011): 90.1%
remaining activity at 1.25 µM ([2]; Well no.=8011): 99.6%

Clc1cccc(N2CCNCC2)c1 [1-(3-Chlorophenyl)piperazine dihydrochloride]
remaining activity at 3.75 µM ([1]; Well no.=36): 104%
remaining activity at 1.25 µM ([2]; Well no.=36): 106%

CCCCC(C)(O)C/C=C/[C@H]1[C@H](O)CC(=O)[C@@H]1CCCCCCC(=O)OC (mixture of isomers) [Misoprostol]
remaining activity at 3.75 µM ([1]; Well no.=2194): 98%
remaining activity at 3.75 µM ([1]; Well no.=7473): 103%
remaining activity at 1.25 µM ([2]; Well no.=2194): 99.5%
remaining activity at 1.25 µM ([2]; Well no.=7473): 104%

CC(C)c1noc(N2CCC(COc3ccc(-c4ccc(S(C)(=O)=O)cc4)nc3)CC2)n1 [GSK1292263]
remaining activity at 3.75 µM ([1]; Well no.=5106): 97.1%
remaining activity at 3.75 µM ([1]; Well no.=8539): 104%
remaining activity at 1.25 µM ([2]; Well no.=5106): 93.1%
remaining activity at 1.25 µM ([2]; Well no.=8539): 105%
